Test results: the supplement of paper PMC10307832

How the values were obtained:
Test in all cases: relative viability (nuclei count vs DMSO), 5 days (fraction); higher = more cells survive
Mirin + OSI-027 = compound: N=C1NC(=O)/C(=C/c2ccc(O)cc2)S1 [Mirin] + COc1cccc2cc(-c3nc([C@H]4CC[C@H](C(=O)O)CC4)n4ncnc(N)c34)[nH]c12 [OSI-027] (partner 0.5 µM)
Procedure, shortened: (§1)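 Relative viability was taken as the ratio of nuclei in treated wells to nuclei in vehicle wells. Lung cancer cell lines in 1536-well plates received compounds by pin tool one day after seeding, either one drug alone or a fixed anchor-drug dose plus five library-drug doses (not always all listed) in √10 steps. Nuclei were counted on 4× images after 5 days of treatment, and values are medians of duplicate plates.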

Mirin + Pemetrexed = compound: N=C1NC(=O)/C(=C/c2ccc(O)cc2)S1 [Mirin] + Nc1nc2[nH]cc(CCc3ccc(C(=O)N[C@@H](CCC(=O)O)C(=O)O)cc3)c2c(=O)[nH]1 [Pemetrexed] (partner 0.2 µM)
Procedure, shortened: as §1

Mirin + AZD7762 = compound: N=C1NC(=O)/C(=C/c2ccc(O)cc2)S1 [Mirin] + NC(=O)Nc1cc(-c2cccc(F)c2)sc1C(=O)N[C@H]1CCCNC1 [AZD7762] (partner 0.2 µM)
Procedure, shortened: as §1

[1] = compound: CCn1c(-c2nonc2N)nc2cnc(Oc3cccc(NC(=O)c4ccc(OCCN5CCOCC5)cc4)c3)cc21 + C[C@]1(O)C[C@@H](c2nc(-c3ccc4ccc(-c5ccccc5)nc4c3)c3c(N)nccn32)C1 [Linsitinib] (partner 1 µM)
Procedure, shortened: as §1

| Cell Line | relative viability (Mirin + OSI-027; first compound 0.25 µM) | relative viability (Mirin + OSI-027; first compound 0.7906 µM) | relative viability (Mirin + OSI-027; first compound 2.5 µM) | relative viability (Mirin + OSI-027; first compound 7.906 µM) | relative viability (Mirin + OSI-027; first compound 25 µM) | relative viability (Mirin + Pemetrexed; first compound 0.25 µM) | relative viability (Mirin + Pemetrexed; first compound 0.7906 µM) | relative viability (Mirin + Pemetrexed; first compound 2.5 µM) | relative viability (Mirin + Pemetrexed; first compound 7.906 µM) | relative viability (Mirin + Pemetrexed; first compound 25 µM) | relative viability (Mirin + AZD7762; first compound 0.25 µM) | relative viability (Mirin + AZD7762; first compound 0.7906 µM) | relative viability (Mirin + AZD7762; first compound 2.5 µM) | relative viability (Mirin + AZD7762; first compound 7.906 µM) | relative viability (Mirin + AZD7762; first compound 25 µM) | relative viability ([1]; first compound 0.04 µM) | relative viability ([1]; first compound 0.1265 µM) | relative viability ([1]; first compound 0.4 µM) | relative viability ([1]; first compound 1.265 µM) | relative viability ([1]; first compound 4 µM) |
| --- | --- | --- | --- | --- | --- | --- | --- | --- | --- | --- | --- | --- | --- | --- | --- | --- | --- | --- | --- | --- |
| HCC-78 | 0.37 | 0.366 | 0.419 | 0.292 | 0.349 | 0.952 | 0.882 | 0.882 | 0.903 | 0.871 | 0.583 | 0.863 | 0.671 | 0.658 | 0.68 | 0.673 | 0.498 | 0.551 | 0.664 | 0.621 |
| NCI-H3122 | 0.954 | 0.809 | 0.921 | 0.887 | 0.902 | 0.195 | 0.213 | 0.209 | 0.208 | 0.264 | 1.01 | 0.954 | 0.927 | 1.07 | 1.1 | 1.04 | 0.985 | 0.991 | 1 | 0.934 |
| HOP-62 | 0.836 | 0.787 | 0.846 | 0.663 | 0.688 | 0.36 | 0.286 | 0.316 | 0.288 | 0.361 | 0.729 | 1.08 | 0.478 | 0.549 | 0.383 | 1.22 | 1.27 | 0.808 | 0.595 | 1.02 |
| NCI-H358 | 0.783 | 0.843 | 0.793 | 0.542 | 0.368 | 0.162 | 0.176 | 0.182 | 0.161 | 0.143 | 0.584 | 0.569 | 0.528 | 0.442 | 0.369 | 1.12 | 0.615 | 0.574 | 0.571 | 0.434 |
| BEN | 0.288 | 0.306 | 0.273 | 0.286 | 0.192 | 0.661 | 0.779 | 0.799 | 0.667 | 0.581 | 0.711 | 0.711 | 0.735 | 0.574 | 0.494 | 0.931 | 0.935 | 0.799 | 0.311 | 0.313 |
| NCI-H1755 | 0.686 | 0.75 | 0.662 | 0.687 | 0.766 | 0.38 | 0.402 | 0.404 | 0.348 | 0.384 | 0.503 | 0.431 | 0.472 | 0.383 | 0.453 | 1.08 | 1.01 | 0.936 | 0.963 | 0.937 |
| LC-2-ad | 0.851 | 0.776 | 0.822 | 0.567 | 0.492 | 0.266 | 0.271 | 0.254 | 0.288 | 0.264 | 0.836 | 0.812 | 0.825 | 0.933 | 0.817 | 0.936 | 0.899 | 0.756 | 0.55 | 0.352 |
| NCI-H1666 | 0.795 | 0.949 | 0.806 | 0.79 | 0.682 | 0.821 | 0.805 | 0.827 | 0.875 | 0.841 | 0.908 | 1.06 | 0.909 | 0.757 | 0.917 | 0.797 | 0.985 | 0.949 | 0.667 | 0.413 |
| 201T | 0.75 | 0.832 |  | 0.629 | 0.64 | 0.307 | 0.309 | 0.337 | 0.336 | 0.302 | 0.581 | 0.754 | 0.673 | 0.441 | 0.552 | 1.01 | 1.05 | 1.03 | 1.03 | 1.1 |
| NCI-H1395 | 0.616 | 0.618 | 0.705 | 0.61 | 0.564 | 0.898 |  | 0.847 | 0.829 | 0.618 | 0.402 |  | 0.419 | 0.434 | 0.393 | 1.25 | 0.931 | 1.04 | 0.502 | 0.616 |
| NCI-H23 | 0.725 |  | 0.544 | 0.443 | 0.589 | 0.782 |  | 0.643 | 0.598 | 0.541 | 0.221 |  | 0.259 | 0.198 | 0.131 | 0.636 | 0.827 |  | 0.549 | 0.477 |
| LU99A | 0.284 | 0.288 | 0.299 | 0.288 | 0.278 | 0.159 | 0.204 | 0.186 | 0.137 | 0.17 | 0.351 | 0.349 | 0.355 | 0.294 | 0.28 | 0.56 | 0.458 | 0.507 | 0.539 | 0.565 |
| NCI-H1437 | 0.853 | 0.895 | 0.948 | 0.832 | 0.643 | 0.313 | 0.351 | 0.377 | 0.345 | 0.31 | 1.06 | 1.18 | 1.11 | 1.1 | 1.06 | 1.31 | 1 | 1.05 | 0.742 | 0.549 |
| EKVX | 0.691 | 0.672 | 0.761 | 0.591 | 0.67 | 0.379 | 0.318 | 0.397 | 0.502 | 0.346 | 0.631 | 0.709 | 0.771 | 0.727 | 0.689 | 1.42 | 1.02 | 1.08 | 0.813 | 0.976 |
| NCI-H596 | 0.826 | 0.747 | 0.842 | 0.587 | 0.746 | 0.493 | 0.542 | 0.437 | 0.521 | 0.539 | 1 | 1.02 | 1.09 | 1.05 | 1.11 | 1.05 | 1.13 | 1.16 | 0.931 | 1.14 |
| LCLC-97TM1 | 0.455 | 0.263 | 0.341 | 0.291 | 0.292 | 0.161 | 0.128 | 0.14 | 0.149 | 0.127 | 0.212 |  | 0.263 |  | 0.329 | 0.221 | 0.204 |  | 0.206 | 0.181 |
| NCI-H1793 | 0.289 |  | 0.335 | 0.286 | 0.259 | 0.862 |  | 0.895 | 1.11 | 0.977 | 0.468 |  | 0.631 | 0.404 | 0.348 | 0.572 | 0.801 | 0.915 | 0.715 | 0.513 |
